IC50 and EC50 data for 21 compounds are collected here from patent publication US20240239780A1, “MODIFIED FERROPORTIN INHIBITORS” (Vifor (International) AG, priority 2021, published 2024).

Each structure is given as a SMILES string.

human Fpn, sequence (Q9NP59 whole entry): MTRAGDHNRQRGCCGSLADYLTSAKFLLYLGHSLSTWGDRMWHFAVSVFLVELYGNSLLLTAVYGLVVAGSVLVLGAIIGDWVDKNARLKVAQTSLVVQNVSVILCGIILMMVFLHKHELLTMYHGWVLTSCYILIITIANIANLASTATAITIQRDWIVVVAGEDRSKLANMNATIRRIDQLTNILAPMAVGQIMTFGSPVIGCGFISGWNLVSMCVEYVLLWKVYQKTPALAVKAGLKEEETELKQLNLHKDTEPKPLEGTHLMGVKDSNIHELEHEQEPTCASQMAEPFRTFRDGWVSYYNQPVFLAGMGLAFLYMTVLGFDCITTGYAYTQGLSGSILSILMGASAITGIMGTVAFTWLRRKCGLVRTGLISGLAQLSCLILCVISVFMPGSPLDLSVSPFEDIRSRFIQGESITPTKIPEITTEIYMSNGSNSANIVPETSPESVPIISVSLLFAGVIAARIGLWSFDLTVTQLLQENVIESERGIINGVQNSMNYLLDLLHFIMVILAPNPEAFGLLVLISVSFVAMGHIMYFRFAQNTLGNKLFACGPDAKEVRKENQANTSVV

For one test, the target named is T1, ferroportin (Fpn) (Mus musculus, UniProt Q9JHI9).
T1 construct: endogenous in cells; host or cells: J774 mouse macrophage cell line, induced with Fe(III)NTA
T1 sequence (Q9JHI9 1-570): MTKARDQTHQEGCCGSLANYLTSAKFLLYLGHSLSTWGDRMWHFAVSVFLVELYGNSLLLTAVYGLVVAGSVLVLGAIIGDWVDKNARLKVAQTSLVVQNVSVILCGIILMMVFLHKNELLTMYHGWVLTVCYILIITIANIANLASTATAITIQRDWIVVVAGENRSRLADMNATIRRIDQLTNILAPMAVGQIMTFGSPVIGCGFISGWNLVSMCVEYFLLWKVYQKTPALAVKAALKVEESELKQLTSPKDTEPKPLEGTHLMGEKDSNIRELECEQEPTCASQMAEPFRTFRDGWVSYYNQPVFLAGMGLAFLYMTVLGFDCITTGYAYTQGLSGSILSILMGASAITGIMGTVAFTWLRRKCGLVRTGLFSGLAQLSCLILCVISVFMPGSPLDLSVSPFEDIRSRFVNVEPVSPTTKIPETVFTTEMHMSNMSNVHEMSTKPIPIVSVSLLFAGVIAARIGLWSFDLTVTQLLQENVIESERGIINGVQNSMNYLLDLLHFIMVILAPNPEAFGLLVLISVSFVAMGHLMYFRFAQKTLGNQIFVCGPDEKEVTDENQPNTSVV
Kind of test: Hepcidin Internalization Assay (J774). In kind it is cell-based. To be noted: J774 cells, TMR-hepcidin 25 nM, 2 hours; read-out: IC 50, average (AVE) of multiple measurements, hepcidin internalization assay. The text has this: This cellular assay allows quantification of the binding of hepcidin to ferroportin (Fpn) through microscopic detection of internalization of a fluorescently labeled hepcidin into J774 cells. […] Binding of hepcidin to Fpn triggers internalization and degradation of both hepcidin and Fpn. […] Therefore, microscopic detection of cell-associated TMR fluorescence is a measure of hepcidin binding to Fpn and internalization of hepcidin and Fpn. If TMR-hepcidin is prevented from binding to Fpn, cellular TMR fluorescence remains low (Dürrenberger et al, 2013). The effect of small molecular weight Fpn inhibitor compounds in this assay was evaluated in vitro as described below. […] Cat. 655090) and grown at 37° C. with 5% CO2. After overnight incubation, cells were washed 3 times with pre-warmed DMEM w/o phenol red, 30 μl/well of DMEM w/o phenol red was added after the final wash and 10 μl/well of dilution series of test compounds were added in triplicates. […] Cells were incubated in a total volume of 50 μl at 37° C. with 5% CO2 for 2 hours, then Hoechst 33342 dye was added to a final concentration of 0.5 μg/ml to stain nuclei and further incubated for 10 min. at 37° C. with 5% CO2. […] After removal of the paraformaldehyde solution, cells were washed 3 times with PBS leaving 100 μl per well and the plates were sealed with foil plate seal. […] The acquired image data was analysed with the […] analysis software. […] IC50 values were calculated with the Sum(Mean) raw data using “log(inhibitor) vs. response” curve fitting of Prism 5 software (GraphPad Software Inc., version 5.02). For each data set the fit of the “log(inhibitor) vs. response (three parameters)” model was compared to the fit of the “log(inhibitor) vs. response-Variable slope (four parameters)” model and the IC50 data of the preferred model was used.
For the compound `O=C(NCc1ncccc1F)c1coc(CCNCCc2nc3cc(-c4ccc(-c5ncco5)cc4)ccc3[nH]2)n1` [compound 90], the IC50 worked out at 0.0058 µM.

As to `O=C(NCc1ccc2c(ccc3ccccc32)n1)c1coc(CCNCCc2nc3c(cnc4ccccc43)[nH]2)n1` [compound 12], the IC50 worked out at 13.9 µM.

With `O=C(NCc1ncccc1C(F)(F)F)c1coc(CCNCCc2nc3c(ccc4ccccc43)[nH]2)n1` [compound 16], the IC50 was 0.443 µM.

In the case of `O=C(NCc1ncccc1F)c1coc(CCNCCc2nc3cc(-c4ccc5c(c4)OCCO5)ccc3[nH]2)n1` [compound 88], the IC50 was 0.012 µM.

In the case of `O=C(NCc1ncccc1F)c1coc(CCNCCc2nc3cc(-c4ccccc4)ccc3[nH]2)n1` [compound 19], the IC50 is 0.006 µM.

`COCCOc1ccccc1-c1ccc2[nH]c(CCNCCc3nc(C(=O)NCc4ncccc4F)co3)nc2c1` [compound 68]: the IC50 amounted to 0.007 µM.

Consider `COc1ccccc1-c1ccc2[nH]c(CCNCCc3nc(C(=O)NCc4ncccc4C)co3)nc2c1` [compound 49], for which the IC50 is 0.018 µM.

In the case of `CCc1ccccc1-c1ccc2[nH]c(CCNCCc3nc(C(=O)NCc4ncccc4F)co3)nc2c1` [compound 71], the IC50 was found to be 0.006 µM.

In the case of `O=C(NCc1ncccc1F)c1coc(CCNCCc2nc3cnc4ccccc4c3[nH]2)n1` [compound 3, 2-(2-((2-(3H-imidazo[4,5-c]quinolin-2-yl)ethyl)amino)ethyl)-N-((3-fluoropyridin-2-yl)methyl)oxazole-4-carboxamide], the IC50 worked out at 0.593 µM.

As to `COc1cccnc1CNC(=O)c1coc(CCNCCc2nc3cc4c(cc3[nH]2)OCCO4)n1` [compound 48], the IC50 is 0.026 µM.

Take `O=C(NCc1ncccc1F)c1coc(CCNCCc2nc3c(-c4cccc(Cl)c4)cccc3[nH]2)n1` [compound 28]: the IC50 amounted to 0.144 µM.

On to `O=C(NCc1ncccc1F)c1coc(CCNCc2nc3c(ccc4ccccc43)[nH]2)n1` [compound 4, 2-(2-(((3H-naphtho[1,2-d]imidazol-2-yl)methyl)amino)ethyl)-N-((3-fluoropyridin-2-yl)methyl)oxazole-4-carboxamide], for which the IC50 was 0.068 µM.

As to `Cc1cccc(-c2ccc3[nH]c(CCNCCc4nc(C(=O)NCc5ncccc5F)co4)nc3c2)c1C` [compound 84], the IC50 came to 0.012 µM.

For the compound `Cc1ccc(-c2ccc3[nH]c(CCNCCc4nc(C(=O)NCc5ncccc5F)co4)nc3c2)cc1` [compound 60], the IC50 turned out to be 0.013 µM.

As for `O=C(NCc1ncccc1F)c1coc(CCNCCc2nc3cc(-c4ccccc4F)ccc3[nH]2)n1` [compound 46], the IC50 was 0.007 µM.

For `O=C(NCc1ncccc1F)c1coc(CCNCCc2nc3c(-c4cccnc4)cccc3[nH]2)n1` [compound 18], the IC50 was found to be 0.053 µM.

Consider `O=C(NCc1ncccc1F)c1coc(CCNCCc2nc3ccc(-c4nn[nH]n4)cc3[nH]2)n1` [compound 40], for which the IC50 stood at 1.04 µM.

Take `O=C(NCc1ncccc1F)c1coc(CCNCCc2nc3cc(-c4cccc(F)c4)ccc3[nH]2)n1` [compound 61]: the IC50 came to 0.011 µM.

With `Cc1cccc(-c2ccc3[nH]c(CCNCCc4nc(C(=O)NCc5ncccc5F)co4)nc3c2)c1` [compound 65], the IC50 amounted to 0.015 µM.

With `Cc1cccnc1CNC(=O)c1coc(CCNCCc2nc3cc4c(cc3[nH]2)OCCO4)n1` [compound 47], the IC50 came to 0.011 µM.

A further test concerns the target human Fpn (Homo sapiens, UniProt Q9NP59). The test is described as follows: biochemical.
Settings: not given
As to the method: This biophysical assay was developed to confirm inhibition of hepcidin binding to ferroportin (Fpn) more directly. Incubation of TMR-hepcidin with purified human Fpn isolated from Pichia pastoris yeast cells expressing human Fpn with a C-terminal FLAG affinity tag (Bonaccorsi di Patti, 2014) leads to increased fluorescence polarization (FP) of the TMR-hepcidin ligand.
`CC[C@H](C)[C@@H]1NC(=O)[C@@H](NC(=O)[C@@H](NC(=O)[C@@H]2CCCN2C(=O)[C@H](Cc2ccccc2)NC(=O)[C@H](Cc2c[nH]cn2)NC(=O)[C@@H](NC(=O)[C@@H](N)CC(=O)O)[C@@H](C)O)[C@@H](C)CC)CSSC[C@@H](C(=O)N[C@@H](CCCCN)C(=O)N[C@H](C(=O)O)[C@@H](C)O)NC(=O)[C@@H]2CSSC[C@@H]3NC(=O)[C@@H]4CSSC[C@H](NC(=O)[C@H](Cc5ccccc5)NC1=O)C(=O)N[C@@H](CSSC[C@H](NC(=O)[C@H](CCCCN)NC(=O)[C@H](CO)NC(=O)[C@H](CCCNC(=N)N)NC(=O)[C@H](Cc1c[nH]cn1)NC3=O)C(=O)NCC(=O)N[C@@H](CCSC)C(=O)N2)C(=O)NCC(=O)N4` [hepcidin] showed an IC50 of approximately 0.37 µM.

In another test the target is human Fpn-GFP fusion protein (Homo sapiens, UniProt Q9NP59). Kind of test: cell-based.
human Fpn-GFP fusion protein, sequence (Q9NP59 whole entry, the tested form may be a part): as the sequence (Q9NP59 whole entry) above
Settings: not given
From the text:
Growing HEK-293 #354 cells in doxycycline containing media induced expression of human Fpn-GFP fusion protein on the cell surface.
Turning to `CC[C@H](C)[C@@H]1NC(=O)[C@@H](NC(=O)[C@@H](NC(=O)[C@@H]2CCCN2C(=O)[C@H](Cc2ccccc2)NC(=O)[C@H](Cc2c[nH]cn2)NC(=O)[C@@H](NC(=O)[C@@H](N)CC(=O)O)[C@@H](C)O)[C@@H](C)CC)CSSC[C@@H](C(=O)N[C@@H](CCCCN)C(=O)N[C@H](C(=O)O)[C@@H](C)O)NC(=O)[C@@H]2CSSC[C@@H]3NC(=O)[C@@H]4CSSC[C@H](NC(=O)[C@H](Cc5ccccc5)NC1=O)C(=O)N[C@@H](CSSC[C@H](NC(=O)[C@H](CCCCN)NC(=O)[C@H](CO)NC(=O)[C@H](CCCNC(=N)N)NC(=O)[C@H](Cc1c[nH]cn1)NC3=O)C(=O)NCC(=O)N[C@@H](CCSC)C(=O)N2)C(=O)NCC(=O)N4` [hepcidin], the EC50 (in general, the concentration at which the effect is half-maximal) was approximately 0.004 µM.
